31 compounds from US6855710B2, “Substituted indolines with an inhibitory effect on various kinases and complexes of CDKs” (Boehringer Ingelheim Pharma KG, priority 1998, dated 2005) can be followed below.

A word on the melting point: it is the temperature of the solid-liquid transition.

Consider `O=C1Nc2ccc([N+](=O)[O-])cc2/C1=C(/Nc1ccc(CCN2CCCCCC2)cc1)c1ccccc1` [Example 265, (Z)-3-{1-[4-(2-hexamethyleneimino-ethyl)-phenylamino]-1-phenyl-methylidene}-5-nitro-2-indolinone], for which the melting point is 217 to 222 °C.
To `CN(C)Cc1ccc(N/C(=C2\C(=O)Nc3ccccc32)c2ccccc2)cc1` [Example 266, (Z)-3-{1-[4-(dimethylaminomethyl)-phenylamino]-1-phenyl-methylidene}-2-indolinone] belongs 237 to 240 °C; to `CN(C)CCc1ccc(N/C(=C2\C(=O)Nc3ccccc32)c2ccccc2)cc1` [Example 268, (Z)-3-{1-[4-(2-dimethylamino-ethyl)-phenylamino]-1-phenyl-methylidene}-2-indolinone], 244 to 246 °C; to `O=C1Nc2ccc([N+](=O)[O-])cc2/C1=C(/Nc1ccc(CCN2CC=CCC2)cc1)c1ccccc1` [Example 269, (Z)-3-{1-[4-(2-(3,6-Dihydro-2H-pyridin-1-yl)-ethyl)-phenylamino]-1-phenyl-methylidene}-5-nitro-2-indolinone], 249 to 254 °C (dec.).
The result for `O=C1Nc2ccc([N+](=O)[O-])cc2/C1=C(/Nc1ccc(CN2CC=CCC2)cc1)c1ccccc1` [Example 270, (Z)-3-{1-[4-(3,6-Dihydro-2H-pyridin-1-ylmethyl)-phenylamino]-1-phenyl-methylidene}-5-nitro-2-indolinone] reads 222 to 225 °C; that for `O=C1Nc2ccc([N+](=O)[O-])cc2/C1=C(/Nc1ccc(CNc2ncccn2)cc1)c1ccccc1` [Example 271, (Z)-3-{1-[4-(pyrimidin-2-ylaminomethyl)-phenylamino]-1-phenyl-methylidene}-5-nitro-2-indolinone], 284 to 286 °C; that for `CN(Cc1ccc(N/C(=C2\C(=O)Nc3ccc([N+](=O)[O-])cc32)c2ccccc2)cc1)c1ncccn1` [Example 272, (Z)-3-{1-[4-((N-methyl-N-pyrimidin-2-yl-amino)-methyl)-phenylamino]-1-phenyl-methylidene}-5-nitro-2-indolinone], 236 to 239 °C.
To `O=C1Nc2ccc([N+](=O)[O-])cc2/C1=C(/Nc1ccc(CN2CCC2)cc1)c1ccccc1` [Example 273, (Z)-3-{1-[4-(Azetidin-1-yl-methyl)-phenylamino]-1-phenyl-methylidene}-5-nitro-2-indolinone] belongs 228 to 229 °C; to `O=C1Nc2ccc([N+](=O)[O-])cc2/C1=C(/Nc1ccc(CNC2CC2)cc1)c1ccccc1` [Example 274, (Z)-3-{1-[4-(cyclopropylaminomethyl)-phenylamino]-1-phenyl-methylidene}-5-nitro-2-indolinone], 220 to 221 °C (dec.).
Regarding `CN(Cc1ccc(N/C(=C2\C(=O)Nc3ccc([N+](=O)[O-])cc32)c2ccccc2)cc1)C1CC1` [Example 275, (Z)-3-{1-[4-((N-cyclopropyl-N-methyl-amino)-methyl)-phenylamino]-1-phenyl-methylidene}-5-nitro-2-indolinone], the melting point lay within 216 to 217 °C.
With `O=C1Nc2ccc([N+](=O)[O-])cc2/C1=C(/Nc1ccc(CNC2CCCC2)cc1)c1ccccc1` [Example 276, (Z)-3-{1-[4-(cyclopentylaminomethyl)-phenylamino]-1-phenyl-methylidene}-5-nitro-2-indolinone], the melting point was 231 °C.
To `CN(Cc1ccc(N/C(=C2\C(=O)Nc3ccc([N+](=O)[O-])cc32)c2ccccc2)cc1)C1CCCC1` [Example 277, (Z)-3-{1-[4-(N-cyclopentyl-N-methyl-aminomethyl)-phenylamino]-1-phenyl-methylidene}-5-nitro-2-indolinone] belongs 228 °C; to `O=C1Nc2ccc([N+](=O)[O-])cc2/C1=C(/Nc1ccc(CNC2CCCCC2)cc1)c1ccccc1` [Example 278, (Z)-3-{1-[4-(cyclohexylaminomethyl)-phenylamino]-1-phenyl-methylidene}-5-nitro-2-indolinone], 245 °C; to `O=C1Nc2ccc([N+](=O)[O-])cc2/C1=C(/Nc1ccc(CNc2ccccn2)cc1)c1ccccc1` [Example 279, (Z)-3-{1-[4-(pyridine-2-ylaminomethyl)-phenylamino]-1-phenyl-methylidene}-5-nitro-2-indolinone], 266 to 268 °C.
To `CN(C)CCCc1ccc(N/C(=C2\C(=O)Nc3ccc([N+](=O)[O-])cc32)c2ccccc2)cc1` [Example 283, (Z)-3-{1-[4-(3-dimethylamino-propyl)-phenylamino]-1-phenyl-methylidene}-5-nitro-2-indolinone] belongs 269 °C (dec.); to `CN(C)CCOc1ccc(N/C(=C2\C(=O)Nc3ccccc32)c2ccccc2)cc1` [Example 284, (Z)-3-{1-[4-(2-dimethylaminoethyloxy)-phenylamino]-1-phenyl-methylidene}-2-indolinone], 258 to 260 °C.
The result for `O=C1Nc2ccccc2/C1=C(/Nc1ccc(OCCN2CCCCC2)cc1)c1ccccc1` [Example 285, (Z)-3-{1-[4-(2-piperidinoethyloxy)-phenylamino]-1-phenyl-methylidene}-2-indolinone] reads 198 to 200 °C.
Compound `CN(C)CCCOc1ccc(N/C(=C2\C(=O)Nc3ccccc32)c2ccccc2)cc1` [Example 286, (Z)-3-{1-[4-(3-dimethylaminopropyloxy)-phenylamino]-1-phenyl-methylidene}-2-indolinone] gave a melting point of 215 to 217 °C.
The result for `O=C1Nc2ccccc2/C1=C(/Nc1ccc(OCCCN2CCCCC2)cc1)c1ccccc1` [Example 287, (Z)-3-{1-[4-(3-piperidinopropyloxy)-phenylamino]-1-phenyl-methylidene}-2-indolinone] reads 223 to 225 °C; that for `CN(CCCOc1ccc(N/C(=C2\C(=O)Nc3ccccc32)c2ccccc2)cc1)Cc1ccccc1` [Example 288, (Z)-3-{1-[4-(3-(N-benzyl-N-methyl-amino)-propyloxy)-phenylamino]-1-phenyl-methylidene}-2-indolinone], 187 to 189 °C.
The result for `CCOC(=O)COc1ccc(N/C(=C2\C(=O)Nc3ccccc32)c2ccccc2)cc1` [Example 289, (Z)-3-{1-[4-(ethyloxycarbonylmethyloxy)-phenylamino]-1-phenyl-methylidene}-2-indolinone] reads 175 to 177 °C; that for `O=C(O)COc1ccc(N/C(=C2\C(=O)Nc3ccccc32)c2ccccc2)cc1` [Example 290, (Z)-3-{1-[4-(carboxymethyloxy)-phenylamino]-1-phenyl-methylidene}-2-indolinone], 238 to 240 °C; that for `CN(C)C(=O)COc1ccc(N/C(=C2\C(=O)Nc3ccccc32)c2ccccc2)cc1` [Example 291, (Z)-3-{1-[4-(dimethylaminocarbonylmethyloxy)-phenylamino]-1-phenyl-methylidene}-2-indolinone], 224 to 226 °C.
`CN(C)CCN(C)C(=O)CN(c1ccc(N/C(=C2\C(=O)Nc3ccccc32)c2ccccc2)cc1)S(C)(=O)=O` [Example 293, (Z)-3-{1-[4-(N—((N-(2-dimethylaminoethyl)-N-methyl-amino)-carbonylmethyl)-N-methylsulphonyl-amino)-phenylamino]-1-phenyl-methylidene}-2-indolinone] showed a melting point of 170 °C.
In turn, `CN(C)CCN(C)C(=O)CN(c1ccc(N/C(=C2\C(=O)Nc3ccc([N+](=O)[O-])cc32)c2ccccc2)cc1)S(C)(=O)=O` [Example 294, (Z)-3-{1-[4-(N—((N-(2-dimethylaminoethyl)-N-methyl-amino)-carbonylmethyl)-N-methylsulphonyl-amino)-phenylamino]-1-phenyl-methylidene}-5-nitro-2-indolinone] had a melting point of 138 to 140 °C.
Compound `CCS(=O)(=O)N(CC(=O)NCCN(C)C)c1ccc(N/C(=C2\C(=O)Nc3ccc([N+](=O)[O-])cc32)c2ccccc2)cc1` [Example 295, (Z)-3-{1-[4-(N-(2-dimethylamino-ethylaminocarbonylmethyl)-N-ethylsulphonyl-amino)-phenylamino]-1-phenyl-methylidene}-5-nitro-2-indolinone] displayed a melting point of 155 °C.
To `CCS(=O)(=O)N(CC(=O)N(C)CCN(C)C)c1ccc(N/C(=C2\C(=O)Nc3ccc([N+](=O)[O-])cc32)c2ccccc2)cc1` [Example 296, (Z)-3-{1-[4-(N—((N-(2-dimethylaminoethyl)-N-methyl-amino)-carbonylmethyl)-N-ethylsulphonyl-amino)-phenylamino]-1-phenyl-methylidene}-5-nitro-2-indolinone] belongs 117 °C; to `CCOC(=O)CN(c1ccc(N/C(=C2\C(=O)Nc3ccccc32)c2ccccc2)cc1)S(=O)(=O)CC` [Example 297, (Z)-3-{1-[4-(N-ethoxycarbonylmethyl-N-ethylsulphonyl-amino)-phenylamino]-1-phenyl-methylidene}-2-indolinone], 228 to 230 °C.
To `CCS(=O)(=O)N(CC(=O)O)c1ccc(N/C(=C2\C(=O)Nc3ccccc32)c2ccccc2)cc1` [Example 298, (Z)-3-{1-[4-(N-carboxymethyl-N-ethylsulphonyl-amino)-phenylamino]-1-phenyl-methylidene}-2-indolinone] belongs 240 to 242 °C.
The result for `CCS(=O)(=O)N(CC(N)=O)c1ccc(N/C(=C2\C(=O)Nc3ccccc32)c2ccccc2)cc1` [Example 299, (Z)-3-{1-[4-(N-aminocarbonylmethyl-N-ethylsulphonyl-amino)-phenylamino]-1-phenyl-methylidene}-2-indolinone] reads 259 °C; that for `CCS(=O)(=O)N(CC(=O)NCCN(C)C)c1ccc(N/C(=C2\C(=O)Nc3ccccc32)c2ccccc2)cc1` [Example 301, (Z)-3-{1-[4-(N-(2-dimethylamino-ethylaminocarbonylmethyl)-N-ethylsulphonyl-amino)-phenylamino]-1-phenyl-methylidene}-2-indolinone], 203 °C.
